# Results published in EP1060182B1, “NOVEL PRODRUGS FOR PHOSPHORUS-CONTAINING COMPOUNDS” (Metabasis Therapeutics, Inc., priority 1998, dated 1999).
# Where “and” joins values, the source holds several entries; their conditions need not be identical. Equal values may be shown once. Entries after “also recorded” stand apart in the source; their conditions may differ. Read-outs that look alike come from different tables or passages of the source.
# Legend:
# [1] = Oral bioavailability by urinary excretion method (Example M); assay type: in vivo; details: rat, urine, parent compound, read-out: % OBAV Parent
# Method: The oral bioavailability of prodrugs of a variety ofphosphonic acid FBPase inhibitors was estimated by a urinary excretion method in rat.
# The quantity of parent compound excreted into urine was determined by HPLC analysis. An ODS column eluted with a gradient from potassium phosphate buffer, pH 5.5 to acetonitrile was employed for these measurements. Detection was at 310-325 nm.
# isolated rat hepatocytes [2] = experiment: Activation to parent compound in isolated rat hepatocytes (Example I); assay type: cell-based; details: 100 µM prodrug
# Text: An ODS column was used for analysis. […] Detection was at 310 nm.
# [3] = system: glucose production in isolated rat hepatocytes; experiment: Inhibition of glucose production in rat hepatocytes (Example J); assay type: cell-based; details: Rattus norvegicus, Hepatocyte; 1 hour, lactate 10 mM / pyruvate 1 mM
# Procedure: Select prodrugs of FBPase inhibitors were tested for inhibition of glucose production in isolated rat hepatocytes.
# After a 10 minute equilibration period, lactate and pyruvate were added to 10 mM and 1 mM concentrations, respectively. Addition of gluconeogenic substrates was immediately followed by that of appropriate concentrations of test compound. After 1 hour, an aliquot (0.25 ml) was removed, transferred to an Eppendorf tube and centrifuged. The supernatant (50 µl) was then assayed for glucose content using a Glucose Oxidase kit (Sigma Chemical Co.) as per the manufacturer's instructions.
# [4] = Chemical stability in isotonic saline and phosphate buffer (Example A); assay type: physicochemical
# [5] = Delivery of parent compound to liver after intraperitoneal prodrug (Example U); assay type: in vivo, rat; details: 1.3 at 50 mg/kg i.p.; the last time point measured
# Procedure: Methods: 1.3 was dissolved in DMSO and administered intraperitoneally to fasted rats at a dose of 50 mg/kg. At various time points following drug administration, animals were anesthetized with halothane. The peritoneal cavity was then opened and a blood sample was obtained from the abdominal vena cava and the liver freeze-clamped and excised. Blood and liver samples were processed as described in Example P and analyzed for 6-Amino-9-neopentyl-8-(2-phosphonofuranyl)purine content as described in Example I.
# [6] = system: microsomal fraction of human liver; experiment: Activation by human liver microsomes (Example E); assay type: in vitro ADME
# Procedure: 7.1, 1.3, and 30.1 were tested for conversion to their respective parent compounds by the microsomal fraction of human liver.
# [7] = Stability in plasma (Example C); assay type: in vitro ADME, rat; details: 37°C, 5-8 hours, reverse phase HPLC
# Method: Methods: Compounds were incubated in plasma at 37°C, and aliqouts removed at appropriate time points over the course of 5-8 hours. The aliquots were extracted with 1.5 volumes of methanol and clarified by centrifugation. Supernatants were then evaporated to dryness and the residues reconstituted with 100 µL of isotonic saline and then analyzed by reverse phase HPLC.
# recombinant CYP3A4 = experiment: Activation by recombinant CYP3A4 (Example G); assay type: in vitro ADME; details: 30.1 at 250 µM, 37°C, NADPH dependent, linear for 30 minutes
# Procedure: Activation of 30.1 and 28.4 was evaluated in reactions containing microsomes from baculovirus-infected insect cells co-expressing recombinant CYP3A4 and cytochrome p450 reductase (Panvera Corp., Madison, WI).
# Methods: Reaction mixture composition was similar to that described in Example E. Reactions were terminated by addition of methanol to a final concentration of 60%, and products typically analyzed by HPLC with use of a YMC reverse phase C8 column (250 x 4.6 mm). […] The effluent was monitored at 254 nm.
# isolated rat hepatocytes [8] = experiment: Active drug metabolites formed after prodrug activation in isolated rat hepatocytes (Example K); details: Dose 100 µM, time point 2h
# Method: Methods: Hepatocytes were prepared and incubated as described in Example I. 28.4 and 30.1 and their respective parent compounds, PMEA and ara-AMP, were dissolved in DMSO or methanol to yield 10 mM stock solutions, and then diluted into the cell suspension to yield a final concentration of 100 µM. At appropriate time points over the course of 2-4 hours, aliquots of the cell suspension were removed and spun through a silicon/mineral oil layer into 10% perchloric acid. The cell extracts in the acid layers were neutralized by the addition of 0.3 volumes of 3M KOH/3M KHCO3, and the extract was then centrifuged, filtered (0.2 micron filter) and loaded onto an anion exchange HPLC column equilibrated with 70% A (10 mM ammonium phosphate pH 3.5, 6% ETOH) and 30% B (1 M ammonium phosphate pH 3.5, 6% ETOH). Ara-ATP and PMEApp were eluted with a gradient to 80% B. Detection was at 254 nm.
# [9] = Activation in tissue homogenates, tissue distribution (Example T); assay type: in vitro ADME, rat; details: liver cytosol, which does not contain microsomes
# Procedure: 30.1 is tested for activation in homogenates from various tissues to assess the specificity of liver activation.
# Methods: Rats are anaesthetized under halothane and tissues including liver, kidney, brain , heart, stomach, spleen, muscle, lung, and testis are excised and frozen in liquid nitrogen. Tissues are then homogenized in 1 to 3 volumes of 50 mM Tris/HCl, 154 mM KCl, 1 mM EGTA pH 7.4. The homogenate is centrifuged at 10,000 rpm and 4°C for 30 minutes and the supernatant recovered. Liver cytosol is prepared by centrifuging the liver crude extract for 1 hour at 40,000 rpm and 4°C. Reaction mixtures consist of 50 mM KH2PO4 pH 7.4, 13 mM glucose-6-phosphate, 2 mM NADP^+, 10 units of glucose-6-phosphate dehydrogenase, 100 µM 30.1 and tissue homogenate at a protein concentration of 8.5 mg/ml. Reactions are incubated at 37°C. Aliquots are taken after 0 and 1 hour of incubation, and extracted with 60 % methanol. The methanolic extracts are centrifuged at 14,000 rpm, and filtered prior to analysis by HPLC. The samples are loaded onto a YMC C8 column equilibrated with 0.1% TFA and eluted with a methanol gradient to 80%. The activation of 30.1 to ara-AMP is monitored at […]
# human liver microsomes = experiment: Identification of the p450 isozyme involved in activation, with specific p450 inhibitors (Example F); assay type: in vitro ADME; details: 250 µM prodrug, ketoconazole, furafylline, sulfaphenazole as inhibitors
# Procedure: Reactions were stopped by addition of methanol to a concentration of 60%, filtered (0.2 µM filter), and lyophilized. Samples were resuspended in HPLC buffer (10 mM phosphate pH 5.5, 2.5 mM octyl-triethyl-ammonium), loaded onto a YMC C8 HPLC column (250 x 4.6 mm), and eluted with a methanol gradient to 80%.
# [10] = Preliminary 22-day toxicological evaluation, intraperitoneal (Example R); assay type: in vivo, mouse; details: i.p. 10 and 100 mg/kg b.i.d. for 22 days, doses up to 200 mg/kg/d
# Text: Death and other obvious signs of toxicity such as weight loss, tremors, ruffling fur, hunching, prostration, diarrhea, lethargy, and hyperactivity were monitored.
# [11] = Pharmacokinetics of 30.1 after intravenous dosing (Example N); assay type: in vivo, rat; details: for half-life: 20 mg/kg
# Procedure: The pharmacokinetics of 30.1 were evaluated in the rat.
# Methods: 30.1 was administered at 20 mg/kg to fasted rats via the tail vein under light halothane anesthesia. At apropriate time points following drug administration, rats were re-anesthetized with halothane. The peritoneal cavity was then opened and a blood sample was obtained from the abdominal vena cava and the liver freeze-clamped and excised. Blood samples were briefly centrifuged and the plasma fraction was then extracted with 1.5 volumes of methanol, processed, and analyzed by HPLC as described in Example A. Liver samples were excised, frozed in liquid nitrogen, and then homogenized in 100% methanol. Liver extracts were then centrifuged at 14,000 rpm and the methanolic supernatants subsequently filtered and evaporated to dryness. Samples were resuspended in isotonic saline and analyzed by HPLC as described in Example A. Pharmacokinetic parameters were determined with the aid of WinNonLin version 1:1 (Scientific Consulting, Inc.) software. Renal excretions studies were performed as described in Example Q.
# [12] = Liver ara-ATP and plasma/urine ara-hypoxanthine after intravenous dosing (Example O); assay type: in vivo, rat
# Procedure: The temporal profile of ara-hypoxanthine and ara-ATP generation following intravenous administration of 30.1 and free ara-AMP was compared in the rat.
# Method: 30.1 and ara-AMP (Sigma) were administered to normal, fasted rats intravenously (in saline) via tail vein catheters. At appropriate time points following drug a administration, animals were lightly anesthetized with halothane. The peritoneal cavity was then opened and a blood sample was obtained from the abdominal vena cava and the liver freeze-clamped and excised.
# The blood samples were heparinized and plasma was prepared. Plasma samples (100 µL) were mixed with 4 N perchloric acid (40 µL), vortexed, and then clarified by centrifugation. The supernatants were analyzed for ara-hypoxanthine by HPLC with use of a Beckman Ultrasphere ODS column (4.6 x 150 mm). The column was eluted with 100 mM acetic acid at a flow rate of 1.0 mL/min. The eluent was monitored by UV absorbance at 254 nm.
# Livers were immediately homogenized in 3 volumes of 10% perchloric acid (w/w), and the extracts clarified by centrifugation at 2500 x g (5 minutes). The resulting supernatants were removed and neutralized with 0.3 volumes of 3M KOH/ 3M KHCO3. The neutralized liver extracts were then spun in an Eppendorf microfuge at 10,000 rpm (20 minutes, 4°C). The supernatants were analyzed for ara-ATP content by reverse phase HPLC (HP1050) using a Whatman Partisphere SA column (4.6 x 125 mm). A gradient from 0.3M ammonium phosphate buffer pH 3.5 to 0.8M ammonium phosphate pH 3.5 was run (1 ml/minute flow rate).
# Renal excretion of araH following i.v. administration of 30.1 or ara-AMP was determined as described in Example Q.
structure (smiles),measurement,setting,value
CC(C)Cn1c(-c2ccc(P(=O)(O)O)o2)nc2ccc(Cl)cc21 [6-Chloro-1-isobutyl-2-(2-phosphono-5-furanyl) benzimidazole],bioavailability at 24 h,[1],0.5%
"CC(C)(C)Cn1c(-c2ccc(P3(=O)OC4CC(O)CC(C4)O3)o2)nc2c(N)ncnc21 (single isomer, unassigned) [Compound 1.3, 6-Amino-8-(5'-hydroxyl-1',3' cyclohexyl)phosphonofuranyl-9-neopentyl purine]",intrahepatocyte levels of parent compound 6-Amino-9-neopenhyl-8-(2-phosphonofuranyl)purine,isolated rat hepatocytes [2],similarly high levels
same,IC50,[3],13 µM
same,stability of 1.3,"[4]; 100 µM in phosphate buffer pH 7.4, 1 hour at room temperature",fully stable
same,persistence of 6-Amino-9-neopentyl-8-(2-phosphonofuranyl)purine in plasma and liver,[5],4 h
same,rate of formation of parent compound,"[6]; 250 µM prodrug, 37°C, NADPH-generating system",0.55 nmoles/mg microsomal protein/minute
same,metabolism / degradation in fresh rat plasma,[7],no evidence of metabolism
"Nc1ncnc2c1ncn2[C@@H]1O[C@H](COP2(=O)OCCC(c3ccncc3)O2)[C@@H](O)[C@@H]1O (stereo partly drawn) [Compound 30.1, Adenine-9-beta-D-arabinofuranoside-5'-[1-(4-pyridyl)-1,3-propyl]monophosphate]",rate of formation of ara-AMP,recombinant CYP3A4,3.3 ± 0.5 nmoles/ min/ nmole CYP3A4
same,Product concentration nmoles/g cells (ara-ATP),isolated rat hepatocytes [8],108±4 nmoles/g cells
same,activation of 30.1 to ara-AMP,[9],does not result in activation
same,primary p450 isoform responsible for activation in human liver,human liver microsomes,CYP3A4
same,stability / decomposition of 30.1,"[4]; 10 µg/mL in isotonic saline and 100 mM potassium phosphate buffers pH 3, 7 and 9, room temperature, sampled 1, 2, 5, 7 days, HPLC",stable for at least seven days; also recorded: No decomposition
same,reaction rate for the formation of ara-AMP,"[6]; 250 µM 30.1, 37°C, human liver microsomes",0.12 nmoles/min/mg of microsomal protein
same,metabolism / degradation in fresh rat plasma,[7],not degraded; also recorded: no evidence of metabolism
same,mortality and obvious signs of toxicity,[10],safely administered
same,concentration of prodrug observed in liver,"[11]; 20 mg/kg i.v., at 20 minutes",~ 20 nmoles/g
same,half-life,"[11]; rat, liver, iv, 20 mg/kg i.v., read-out: liver half life (converted)",54 min
same,half-life,"[11]; rat, plasma, iv, 20 mg/kg i.v., read-out: plasma half life (converted)",11.4 min
same,half-life,"[11]; rat, plasma, iv, 30.1 in rat, restated in Example S, read-out: plasma half-life",12 min
same,clearance,"[11]; rat, plasma, iv, 20 mg/kg i.v.",55.7 mL/min/kg
same,MRT,"[11]; rat, plasma, iv, 20 mg/kg i.v., read-out: mean residence time",12.6 min
same,Vd,"[11]; rat, plasma, iv, 20 mg/kg i.v., read-out: volume of distribution",0.7 L/kg
same,dose excreted at 24 h,"[11]; rat, urine, iv, 24 hr urine, read-out: urinary (renal) excretion (24hr)",~58%
same,amount of araATP per gram of liver over time (Figure 1A),[12]; 30.1 i.v. 10 and 3 mg/kg vs araAMP 10 mg/kg,Significantly higher liver levels
same,ara-hypoxanthine in urine,[12]; i.v. 30.1,Nor was ara-hypoxanthine detected in urine
same,ara-hypoxanthine (araH) in plasma,"[12]; i.v., 30.1 at 10 and 3 mg/kg, ara-AMP at equivalent doses",virtually no araH; also recorded: not detected
same,liver levels of araATP relative to araA or araAMP,"[12]; i.v., summary statements of Example O",2-5 fold and 2- to 5 fold
